Laboratory results taken from patent publication US11629171B2, “Beta-hairpin peptidomimetics” (POLYPHOR AG, priority 2017, dated 2023).
≈ marks a conversion by molar mass, not a printed value. Where a SMILES comes first, the peptide text is derived from it. Bridges are numbered along the chain shown (N, C = ends). Roman numbers before positions name the chains, in order. [ ]: non-standard residue; d: D form. Tle = CC(C)(C)[C@H](N)C(=O)O; dDab = NCC[C@@H](N)C(=O)O; Dab = NCC[C@H](N)C(=O)O; Dap = NC[C@H](N)C(=O)O

Columns and labels:
Assay type in all cases: cell-based
[1] = test system: Acinetobacter baumannii 872842; conditions: 872842
Outline: (§1)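 MIC in μg/mL, read as no visible growth after 18-20 hours at 35° C. Peptides were serially diluted two-fold in MH-II broth plus P-80 (0.002% final, v/v) and inoculated at about 10^6 CFU/mL following the CLSI broth microdilution standard.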

[2] = test system: Acinetobacter baumannii DSM 30008; conditions: DSM 30008
Outline: as §1

[3] = test system: Enterobacter cloacae 848840; conditions: 848840
Outline: as §1

Escherichia coli 926415 = conditions: 926415
Outline: as §1

[4] = test system: Escherichia coli ATCC 25922; conditions: ATCC 25922
Outline: as §1

[5] = test system: Klebsiella pneumoniae 968733; conditions: 968733
Outline: as §1

[6] = test system: Klebsiella pneumoniae SSI #3010; conditions: SSI #3010
Outline: as §1

[7] = test system: Pseudomonas aeruginosa ATCC 27853; conditions: ATCC 27853
Outline: as §1

[8] = test system: human red blood cells (hRBC); experiment: Hemolysis; conditions: red cells of human, 1 h, 200
Outline: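 Percent hemolysis relative to 2% Triton X-100 (100%) and PBS/10% water (0%), from blank-corrected OD540 of diluted supernatants. Peptides tested at 200 μg/mL against 20% (v/v) washed human erythrocytes, 1 h, 37° C, shaking at 300 rpm.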

Row | SMILES | MIC [1] [mg/L] | MIC [2] [mg/L] | MIC [3] [mg/L] | MIC (Escherichia coli 926415) [mg/L] | MIC [4] [mg/L] | MIC [5] [mg/L] | MIC [6] [mg/L] | MIC [7] [mg/L] | Hemolysis at 200 μg/mL [8] [%]
1 | CC(=O)N[C@H](C(=O)N[C@H]1CCNC(=O)CC[C@@H](C(=O)N[C@@H](CO)C(N)=O)NC(=O)[C@H](C(C)(C)C)NC(=O)[C@H](CO)NC(=O)[C@H](Cc2c[nH]c3ccccc23)NC(=O)[C@H](CO)NC(=O)[C@@H](CCN)NC(=O)[C@H](CCC(=O)N[C@@H](CCN)C(=O)N[C@H](C(=O)N[C@@H](CN)C(=O)N[C@H]2CCNC(=O)[C@H]([C@@H](C)O)NC(=O)[C@H](CCN)NC(=O)[C@H](CCN)NC(=O)[C@H](CC(C)C)NC(=O)[C@@H](CC(C)C)NC(=O)[C@H](CCN)NC2=O)[C@@H](C)O)NC(=O)[C@H](CN)NC(=O)[C@H](Cc2ccc(O)cc2)NC1=O)C(C)C [Ex. 146] (I: Ac-V[Dab]Y[Dap]E[dDab]SWS[Tle]ES-NH2 / II: [Dab]T[Dap][Dab][Dab][dL]L[Dab][Dab]T; lactam I:2-I:11, II:4-II:C; amide I:5-II:N) | 0.125 (≈ 0.052 µM) | 0.0625 (≈ 0.026 µM) | 0.25 (≈ 0.104 µM) | 0.25 (≈ 0.104 µM) | 0.0625 (≈ 0.026 µM) | 0.25 (≈ 0.104 µM) | 0.0625 (≈ 0.026 µM) | 0.125 (≈ 0.052 µM) | <1
2 | CC(=O)N[C@H](C(=O)N[C@H]1CCNC(=O)CC[C@@H](C(=O)N[C@@H](CO)C(N)=O)NC(=O)[C@H](C(C)C)NC(=O)[C@H](CO)NC(=O)[C@H](Cc2c[nH]c3ccccc23)NC(=O)[C@H](CO)NC(=O)[C@@H](CCN)NC(=O)[C@H](CCC(=O)N[C@@H](CCN)C(=O)N[C@H](C(=O)N[C@@H](CN)C(=O)N[C@H]2CCNC(=O)[C@H]([C@@H](C)O)NC(=O)[C@H](CCN)NC(=O)[C@H](CCN)NC(=O)[C@H](CC(C)C)NC(=O)[C@@H](CC(C)C)NC(=O)[C@H](CCN)NC2=O)[C@@H](C)O)NC(=O)[C@H](CN)NC(=O)[C@H](Cc2ccc(O)cc2)NC1=O)C(C)C [Ex. 147] (I: Ac-V[Dab]Y[Dap]E[dDab]SWSVES-NH2 / II: [Dab]T[Dap][Dab][Dab][dL]L[Dab][Dab]T; lactam I:2-I:11, II:4-II:C; amide I:5-II:N) | 0.25 (≈ 0.105 µM) | 0.0625 (≈ 0.0261 µM) | 0.125 (≈ 0.0523 µM) | 0.25 (≈ 0.105 µM) | 0.0625 (≈ 0.0261 µM) | 0.5 (≈ 0.209 µM) | 0.0625 (≈ 0.0261 µM) | 0.125 (≈ 0.0523 µM) | <1
3 | CC(=O)N[C@H](C(=O)N[C@H]1CCNC(=O)C[C@@H](C(=O)N[C@@H](CO)C(N)=O)NC(=O)[C@H](C(C)(C)C)NC(=O)[C@H](CO)NC(=O)[C@H](Cc2c[nH]c3ccccc23)NC(=O)[C@H](CO)NC(=O)[C@@H](CCN)NC(=O)[C@H](CCC(=O)N[C@@H](CCN)C(=O)N[C@H](C(=O)N[C@@H](CN)C(=O)N[C@H]2CCNC(=O)[C@H]([C@@H](C)O)NC(=O)[C@H](CCN)NC(=O)[C@H](CCN)NC(=O)[C@H](CC(C)C)NC(=O)[C@@H](CC(C)C)NC(=O)[C@H](CCN)NC2=O)[C@@H](C)O)NC(=O)[C@H](CN)NC(=O)[C@H](Cc2ccc(O)cc2)NC1=O)C(C)C [Ex. 148] (I: Ac-V[Dab]Y[Dap]E[dDab]SWS[Tle]DS-NH2 / II: [Dab]T[Dap][Dab][Dab][dL]L[Dab][Dab]T; lactam I:2-I:11, II:4-II:C; amide I:5-II:N) | 0.0625 (≈ 0.0261 µM) | 0.03125 (≈ 0.0131 µM) | 0.0625 (≈ 0.0261 µM) | 0.125 (≈ 0.0523 µM) | 0.03125 (≈ 0.0131 µM) | 0.25 (≈ 0.105 µM) | 0.0625 (≈ 0.0261 µM) | 0.125 (≈ 0.0523 µM) | <1
4 | CC(=O)N[C@H](C(=O)N[C@H]1CCNC(=O)C[C@@H](C(=O)N[C@@H](CO)C(N)=O)NC(=O)[C@H](C(C)C)NC(=O)[C@H](CO)NC(=O)[C@H](Cc2c[nH]c3ccccc23)NC(=O)[C@H](CO)NC(=O)[C@@H](CCN)NC(=O)[C@H](CCC(=O)N[C@@H](CCN)C(=O)N[C@H](C(=O)N[C@@H](CN)C(=O)N[C@H]2CCNC(=O)[C@H]([C@@H](C)O)NC(=O)[C@H](CCN)NC(=O)[C@H](CCN)NC(=O)[C@H](CC(C)C)NC(=O)[C@@H](CC(C)C)NC(=O)[C@H](CCN)NC2=O)[C@@H](C)O)NC(=O)[C@H](CN)NC(=O)[C@H](Cc2ccc(O)cc2)NC1=O)C(C)C [Ex. 149] (I: Ac-V[Dab]Y[Dap]E[dDab]SWSVDS-NH2 / II: [Dab]T[Dap][Dab][Dab][dL]L[Dab][Dab]T; lactam I:2-I:11, II:4-II:C; amide I:5-II:N) | 0.125 (≈ 0.0526 µM) | 0.0625 (≈ 0.0263 µM) | 0.125 (≈ 0.0526 µM) | 0.25 (≈ 0.105 µM) | 0.0625 (≈ 0.0263 µM) | 0.5 (≈ 0.21 µM) | 0.125 (≈ 0.0526 µM) | 0.125 (≈ 0.0526 µM) | <1
